Reference: patent publication US12624018B1, “Inhibitors of RIPK2 and medical uses thereof” (Odyssey Therapeutics, Inc., priority 2022, dated 2026)

Target: T1, RIPK2 enzyme (Homo sapiens, UniProt O43353)
T1 construct: purchased Carna 09-128
Experiment: RIPK2 inhibition (ADP-Glo Kinase Assay)
Type: biochemical
Conditions: RIPK2 5 nM, ATP 150 μM, MBP substrate, read-out: RIPK2 IC50
In short: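 Swine MBP substrate; compound and 5 nM RIPK2 first mixed for 30 min at room temperature; buffer pH 7.5 HEPES 50 mM with 10 mM MgCl2, 2 mM DTT, 1 mM EGTA, Brij-35, BSA.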

T1 sequence (O43353 1-299 limits assumed): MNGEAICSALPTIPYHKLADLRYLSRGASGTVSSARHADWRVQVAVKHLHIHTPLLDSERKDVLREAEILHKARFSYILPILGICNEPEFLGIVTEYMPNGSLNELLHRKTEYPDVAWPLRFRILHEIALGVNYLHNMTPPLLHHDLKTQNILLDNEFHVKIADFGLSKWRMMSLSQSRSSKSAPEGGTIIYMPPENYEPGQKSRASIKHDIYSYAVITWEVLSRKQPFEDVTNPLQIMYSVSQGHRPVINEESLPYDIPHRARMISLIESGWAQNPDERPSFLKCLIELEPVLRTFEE

IC50, < 2.5 nM:
Cc1c(Oc2ccnc3ccc(S(=O)(=O)C4CCNCC4)cc23)ccc(CC(=O)Nc2cnn(C(C)(C)C)c2)c1F [Compound 312, N-(1-(tert-butyl)-1H-pyrazol-4-yl)-2-(2-fluoro-3-methyl-4-((6-(piperidin-4-ylsulfonyl)quinolin-4-yl)oxy)phenyl)acetamide]
Cc1cc(CC(=O)Nc2cnn(C(C)(C)C)c2)c(F)cc1Oc1ccnc2ccc(S(=O)(=O)C3CCNCC3)cc12 [Compound 313, N-(1-(tert-butyl)-1H-pyrazol-4-yl)-2-(2-fluoro-5-methyl-4-((6-(piperidin-4-ylsulfonyl)quinolin-4-yl)oxy)phenyl)acetamide]
Cc1cc(CC(=O)Nc2cnn(C(C)(C)C)c2)ccc1Oc1ccnc2ccc(S(=O)(=O)C3CNC3)cc12 [Compound 314, 2-(4-((6-(azetidin-3-ylsulfonyl)quinolin-4-yl)oxy)-3-methylphenyl)-N-(1-(tert-butyl)-1H-pyrazol-4-yl)acetamide]
Cc1c(Oc2ccnc3ccc(S(=O)(=O)C4CNC4)cc23)ccc(CC(=O)Nc2cnn(C(C)(C)C)c2)c1F [Compound 315, 2-(4-((6-(azetidin-3-ylsulfonyl)quinolin-4-yl)oxy)-2-fluoro-3-methylphenyl)-N-(1-(tert-butyl)-1H-pyrazol-4-yl)acetamide]
Cc1cc(CC(=O)Nc2cnn(C(C)(C)C)c2)c(F)cc1Oc1ccnc2ccc(S(=O)(=O)C3CNC3)cc12 [Compound 316, 2-(4-((6-(azetidin-3-ylsulfonyl)quinolin-4-yl)oxy)-2-fluoro-5-methylphenyl)-N-(1-(tert-butyl)-1H-pyrazol-4-yl)acetamide]
Cc1cc(CC(=O)Nc2cnn(C(C)(C)C)c2)ccc1Oc1ccnc2ccc(N3CCC(F)(F)C3=O)cc12 [Compound 325, N-(1-(tert-butyl)-1H-pyrazol-4-yl)-2-(4-((6-(3,3-difluoro-2-oxopyrrolidin-1-yl)quinolin-4-yl)oxy)-3-methylphenyl) acetamide]
Cc1cc(CC(=O)Nc2cc(C(C)(C)CO)n[nH]2)ccc1Oc1ccnc2ccc(S(C)(=O)=O)cc12 [Compound 328, N-(5-(1-hydroxy-2-methylpropan-2-yl)-1H-pyrazol-3-yl)-2-(3-methyl-4-((6-(methylsulfonyl)quinolin-4-yl)oxy)phenyl)acetamide]
Cc1c(Oc2ccnc3ccc(S(C)(=O)=O)cc23)ccc(CC(=O)Nc2cc(C(C)(C)CO)n[nH]2)c1F [Compound 329, 2-(2-fluoro-3-methyl-4-((6-(methylsulfonyl)quinolin-4-yl)oxy)phenyl)-N-(5-(1-hydroxy-2-methylpropan-2-yl)-1H-pyrazol-3-yl)acetamide]
COC(C)(C)c1cc(NC(=O)Cc2ccc(Oc3ccnc4ccc(S(C)(=O)=O)cc34)c(C)c2)[nH]n1 [Compound 330, N-(5-(2-methoxypropan-2-yl)-1H-pyrazol-3-yl)-2-(3-methyl-4-((6-(methylsulfonyl)quinolin-4-yl)oxy)phenyl)acetamide]
COC(C)(C)c1cc(NC(=O)Cc2ccc(Oc3ccnc4ccc(S(C)(=O)=O)cc34)c(C)c2F)[nH]n1 [Compound 331, 2-(2-fluoro-3-methyl-4-((6-(methylsulfonyl)quinolin-4-yl)oxy)phenyl)-N-(5-(2-methoxypropan-2-yl)-1H-pyrazol-3-yl)acetamide]
Cc1cc(CC(=O)Nc2cnn(C(C)(C)C)c2)ccc1Oc1ccnc2ccc(S(=O)(=O)CC3CNC3)cc12 [Compound 332, 2-(4-((6-((azetidin-3-ylmethyl)sulfonyl)quinolin-4-yl)oxy)-3-methylphenyl)-N-(1-(tert-butyl)-1H-pyrazol-4-yl)acetamide]
Cc1c(Oc2ccnc3ccc(C(=O)O)cc23)ccc(CC(=O)Nc2cnn(C(C)(C)C)c2)c1F [Compound 333, 4-(4-(2-((1-(tert-butyl)-1H-pyrazol-4-yl)amino)-2-oxoethyl)-3-fluoro-2-methyl-phenoxy) quinoline-6-carboxylic acid]
Cc1c(Oc2ccnc3ccc(C(N)=O)cc23)ccc(CC(=O)Nc2cnn(C(C)(C)C)c2)c1F [Compound 334, 4-(4-(2-((1-(tert-butyl)-1H-pyrazol-4-yl)amino)-2-oxoethyl)-3-fluoro-2-methyl-phenoxy) quinoline-6-carboxamide]
CNC(=O)c1ccc2nccc(Oc3ccc(CC(=O)Nc4cnn(C(C)(C)C)c4)c(F)c3C)c2c1 [Compound 335, 4-(4-(2-((1-(tert-butyl)-1H-pyrazol-4-yl)amino)-2-oxoethyl)-3-fluoro-2-methyl-phenoxy)-N-methyl-quinoline-6-carboxamide]
Cc1c(Oc2ccnc3ccc(C(=O)N(C)C)cc23)ccc(CC(=O)Nc2cnn(C(C)(C)C)c2)c1F [Compound 336, 4-(4-(2-((1-(tert-butyl)-1H-pyrazol-4-yl)amino)-2-oxoethyl)-3-fluoro-2-methyl-phenoxy)-N,N-dimethyl-quinoline-6-carboxamide]
Cc1c(Oc2ccnc3ccc(C(=O)NCC(F)(F)F)cc23)ccc(CC(=O)Nc2cnn(C(C)(C)C)c2)c1F [Compound 337, 4-(4-(2-((1-(tert-butyl)-1H-pyrazol-4-yl)amino)-2-oxoethyl)-3-fluoro-2-methyl-phenoxy)-N-(2,2,2-trifluoroethyl) quinoline-6-carboxamide]
CCNC(=O)c1ccc2nccc(Oc3ccc(CC(=O)Nc4cnn(C(C)(C)C)c4)c(F)c3C)c2c1 [Compound 338, 4-(4-(2-((1-(tert-butyl)-1H-pyrazol-4-yl)amino)-2-oxoethyl)-3-fluoro-2-methyl-phenoxy)-N-ethylquinoline-6-carboxamide]
Cc1c(Oc2ccnc3ccc(C(=O)NCCO)cc23)ccc(CC(=O)Nc2cnn(C(C)(C)C)c2)c1F [Compound 339, 4-(4-(2-((1-(tert-butyl)-1H-pyrazol-4-yl)amino)-2-oxoethyl)-3-fluoro-2-methyl-phenoxy)-N-(2-hydroxyethyl) quinoline-6-carboxamide]
Cc1c(Oc2ccnc3ccc(C(=O)N(C)CCO)cc23)ccc(CC(=O)Nc2cnn(C(C)(C)C)c2)c1F [Compound 340, 4-(4-(2-((1-(tert-butyl)-1H-pyrazol-4-yl)amino)-2-oxoethyl)-3-fluoro-2-methyl-phenoxy)-N-(2-hydroxyethyl)-N-methyl-quinoline-6-carboxamide]
Cc1c(Oc2ccnc3ccc(C(=O)N(CCO)CCO)cc23)ccc(CC(=O)Nc2cnn(C(C)(C)C)c2)c1F [Compound 341, 4-(4-(2-((1-(tert-butyl)-1H-pyrazol-4-yl)amino)-2-oxoethyl)-3-fluoro-2-methyl-phenoxy)-N,N-bis(2-hydroxyethyl) quinoline-6-carboxamide]
COCCNC(=O)c1ccc2nccc(Oc3ccc(CC(=O)Nc4cnn(C(C)(C)C)c4)c(F)c3C)c2c1 [Compound 342, 4-(4-(2-((1-(tert-butyl)-1H-pyrazol-4-yl)amino)-2-oxoethyl)-3-fluoro-2-methyl-phenoxy)-N-(2-methoxyethyl) quinoline-6-carboxamide]
COCCN(C)C(=O)c1ccc2nccc(Oc3ccc(CC(=O)Nc4cnn(C(C)(C)C)c4)c(F)c3C)c2c1 [Compound 343, 4-(4-(2-((1-(tert-butyl)-1H-pyrazol-4-yl)amino)-2-oxoethyl)-3-fluoro-2-methyl-phenoxy)-N-(2-methoxyethyl)-N-methyl-quinoline-6-carboxamide]
Cc1c(Oc2ccnc3ccc(C(=O)N4CCC4)cc23)ccc(CC(=O)Nc2cnn(C(C)(C)C)c2)c1F [Compound 344, 2-(4-((6-(azetidine-1-carbonyl)quinolin-4-yl)oxy)-2-fluoro-3-methyl-phenyl)-N-(1-(tert-butyl)-1H-pyrazol-4-yl)acetamide]
Cc1c(Oc2ccnc3ccc(C(=O)N4CC(F)C4)cc23)ccc(CC(=O)Nc2cnn(C(C)(C)C)c2)c1F [Compound 345, N-(1-(tert-butyl)-1H-pyrazol-4-yl)-2-(2-fluoro-4-((6-(3-fluoro-azetidine-1-carbonyl)quinolin-4-yl)oxy)-3-methylphenyl) acetamide]
Cc1c(Oc2ccnc3ccc(C(=O)N4CC(C#N)C4)cc23)ccc(CC(=O)Nc2cnn(C(C)(C)C)c2)c1F [Compound 346, N-(1-(tert-butyl)-1H-pyrazol-4-yl)-2-(4-((6-(3-cyano-azetidine-1-carbonyl)quinolin-4-yl)oxy)-2-fluoro-3-methylphenyl) acetamide]
Cc1c(Oc2ccnc3ccc(C(=O)N4CC5(COC5)C4)cc23)ccc(CC(=O)Nc2cnn(C(C)(C)C)c2)c1F [Compound 347, 2-(4-((6-(2-oxa-6-azaspiro[3.3]heptane-6-carbonyl)quinolin-4-yl)oxy)-2-fluoro-3-methyl-phenyl)-N-(1-(tert-butyl)-1H-pyrazol-4-yl)acetamide]
Cc1c(Oc2ccnc3ccc(C(=O)N4CC(O)C4)cc23)ccc(CC(=O)Nc2cnn(C(C)(C)C)c2)c1F [Compound 348, N-(1-(tert-butyl)-1H-pyrazol-4-yl)-2-(2-fluoro-4-((6-(3-hydroxy-azetidine-1-carbonyl)quinolin-4-yl)oxy)-3-methyl-phenyl) acetamide]
Cc1c(Oc2ccnc3ccc(C(=O)N4CC(N)C4)cc23)ccc(CC(=O)Nc2cnn(C(C)(C)C)c2)c1F [Compound 349, 2-(4-((6-(3-amino-azetidine-1-carbonyl)quinolin-4-yl)oxy)-2-fluoro-3-methyl-phenyl)-N-(1-(tert-butyl)-1H-pyrazol-4-yl)acetamide]
Cc1c(Oc2ccnc3ccc(C(=O)N4CCCC4)cc23)ccc(CC(=O)Nc2cnn(C(C)(C)C)c2)c1F [Compound 350, N-(1-(tert-butyl)-1H-pyrazol-4-yl)-2-(2-fluoro-3-methyl-4-((6-(pyrrolidine-1-carbonyl)quinolin-4-yl)oxy)phenyl) acetamide]
